Experimental data from US20250179103A1, “6-OXODECAHYDROPYRROLO[1,2-A][1,5]DIAZOCINE AND 6-OXODECAHYDRO-4H-PYRROLO[2,1-D][1,5]THIAZOCINE DERIVATIVES AS STAT3 AND STAT6 MODULATORS FOR THE TREATMENT OF CANCER AND INFLAMMATORY CONDITIONS” (Recludix Pharma, Inc., priority 2022, published 2025).

Experiments:
[1] = molecular target: T1, Recombinant STAT3 protein (STAT3(G127-I722)) (Homo sapiens, UniProt P40763); assay: STAT3 Fluorescence Polarization (FP) Assay; assay type: binding; settings: STAT3(G127-I722) 25 nM, probe 5-FAM-GpYLPQTV-NH2 2 nM, 45-minute incubation
T1 construct: Recombinant STAT3 protein (STAT3(G127-I722))
T1 sequence (P40763 127-722): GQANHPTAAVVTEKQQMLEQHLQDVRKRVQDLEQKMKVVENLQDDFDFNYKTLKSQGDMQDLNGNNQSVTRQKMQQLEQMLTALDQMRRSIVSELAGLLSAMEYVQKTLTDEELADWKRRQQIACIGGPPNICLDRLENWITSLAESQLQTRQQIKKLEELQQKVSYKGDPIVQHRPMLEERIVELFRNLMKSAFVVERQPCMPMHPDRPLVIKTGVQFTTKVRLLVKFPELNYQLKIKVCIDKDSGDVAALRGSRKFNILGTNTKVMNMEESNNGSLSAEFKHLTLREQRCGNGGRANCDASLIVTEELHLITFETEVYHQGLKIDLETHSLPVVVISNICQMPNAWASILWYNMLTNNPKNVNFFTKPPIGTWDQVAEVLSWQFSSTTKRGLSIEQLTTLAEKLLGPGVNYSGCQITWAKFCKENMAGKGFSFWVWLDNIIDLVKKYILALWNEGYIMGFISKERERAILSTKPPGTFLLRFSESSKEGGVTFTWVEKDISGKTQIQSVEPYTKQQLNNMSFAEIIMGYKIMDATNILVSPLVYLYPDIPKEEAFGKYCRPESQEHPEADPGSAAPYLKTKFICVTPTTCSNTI
Method: STAT3 Fluorescence Polarization (FP) Assay
An FP assay was developed to determine IC50 values for test substances. Recombinant STAT3 protein (STAT3(G127-I722)) at 25 nM was combined with a fluorescently labeled, phosphotyrosine peptide probe (5-FAM-GpYLPQTV-NH2) at 2 nM in FP buffer (10 mM HEPES pH 7.4, 50 mM NaCl, 1 mM EDTA, 0.05% Tween 20.2 mM DTT). 50 μL of STAT3-probe mixture was added to serial diluted compounds in black, 96-well plates (Greiner BioOne 655076) to a final concentration of 1% DMSO. Reaction components were mixed, and FP was measured after 45-minute incubation at room temperature using a Tecan Spark multimode plate reader. FP signal (mP) was plotted against the log concentration of the test substances and IC50 values were calculated by nonlinear regression analysis using GraphPad Prism software. For STAT3 FP assay, A=≤100 nM; B=>100-1000 nM; C=>1-10 μM; and D=>10 μM.

[2] = molecular target: T2, Recombinant STAT6 protein (STAT6(W123-T658)) (Homo sapiens, UniProt P42226); assay: STAT6 Fluorescence Polarization (FP) Assay; assay type: binding; settings: STAT6(W123-T658) 250 nM, probe 5-FAM-ApYKPFQDLI-NH2 2 nM, 45-minute incubation
T2 construct: Recombinant STAT6 protein (STAT6(W123-T658))
T2 sequence (P42226 123-658): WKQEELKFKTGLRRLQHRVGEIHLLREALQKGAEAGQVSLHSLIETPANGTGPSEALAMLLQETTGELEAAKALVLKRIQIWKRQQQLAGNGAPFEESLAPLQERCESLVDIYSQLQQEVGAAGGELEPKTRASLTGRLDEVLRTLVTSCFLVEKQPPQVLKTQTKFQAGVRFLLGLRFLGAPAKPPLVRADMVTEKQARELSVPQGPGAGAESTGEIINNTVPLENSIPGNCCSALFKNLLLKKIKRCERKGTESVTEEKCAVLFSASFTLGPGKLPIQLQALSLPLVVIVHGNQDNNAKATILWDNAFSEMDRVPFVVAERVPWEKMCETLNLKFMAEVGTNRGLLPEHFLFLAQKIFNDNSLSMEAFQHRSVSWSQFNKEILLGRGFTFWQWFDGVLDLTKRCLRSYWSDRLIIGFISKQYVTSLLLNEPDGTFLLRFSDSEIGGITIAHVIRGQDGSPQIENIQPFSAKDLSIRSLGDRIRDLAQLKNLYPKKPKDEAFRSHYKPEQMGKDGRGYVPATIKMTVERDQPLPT
Method: STAT6 Fluorescence Polarization (FP) Assay
An FP assay was developed to determine IC50 values for test substances. Recombinant STAT6 protein (STAT6(W123-T658)) at 250 nM was combined with a fluorescently labeled, phosphotyrosine peptide probe (5-FAM-ApYKPFQDLI-NH2) at 2 nM in FP buffer (10 mM HEPES pH 7.4, 50 mM NaCl, 1 mM EDTA, 0.05% Tween 20.2 mM DTT). 50 μL of STAT6-probe mixture was added to serial diluted compounds in black, 96-well plates (Greiner BioOne 655076) to a final concentration of 1% DMSO. Reaction components were mixed, and FP was measured after 45-minute incubation at room temperature using a Tecan Spark multimode plate reader. FP signal (mP) was plotted against the log concentration of the test substances and IC50 values were calculated by nonlinear regression analysis using GraphPad Prism software. For STAT6 FP assay, A=≤300 nM; B=>300-3000 nM; C=>3-30 μM; and D=>30 μM.

| SMILES | IC50 [1] | IC50 [2] |
| --- | --- | --- |
| Cc1ccc2onc(C(=O)N3CC[C@H]4CC[C@@H](C(=O)N5CCOCC5)N4C(=O)[C@@H](NC(=O)c4ccc5ncc(C(F)P(=O)(O)O)cc5c4)C3)c2c1 (stereo partly drawn) [Compound 376, (fluoro(6-(((5S,8S, 10aR)-3-(5-methylbenzo[d]isoxazole-3-carbonyl)-8-(morpholine-4-carbonyl)-6-oxodecahydropyrrolo [1,2-a][1,5]diazocin-5-yl)carbamoyl)quinolin-3-yl)methyl)phosphonic acid] | > 10 µM | 0.3 to 3 µM |
| CC(=O)N1CC[C@H]2CC[C@@H](C(=O)N(C)c3ccccc3)N2C(=O)[C@@H](NC(=O)/C=C(\C)c2cccc(C(F)(F)P(=O)(O)O)c2)C1 [Compound 50, ((3-((E)-4-(((5S,8S,10aR)-3-acetyl-8-(methyl(phenyl)carbamoyl)-6-oxodecahydropyrrolo[1,2-a][1,5]diazocin-5-yl)amino)-4-oxobut-2-en-2-yl)phenyl)difluoromethyl)phosphonic acid] | > 10 µM | 3 to 30 µM |
| CC(=O)N1CC[C@H]2CC[C@@H](C(=O)N[C@H]3CN(S(C)(=O)=O)C[C@@H]3O)N2C(=O)[C@@H](NC(=O)c2cc3cc(C(F)(F)P(=O)(O)O)ccc3s2)C1 [Compound 6, ((2-(((5S,8S,10aR)-3-acetyl-8-(((3S,4S)-4-hydroxy-1-(methylsulfonyl)pyrrolidin-3-yl)carbamoyl)-6-oxodecahydropyrrolo[1,2-a][1,5]diazocin-5-yl)carbamoyl)benzo[b]thiophen-5-yl)difluoromethyl)phosphonic Acid] | 1 to 10 µM | 0.3 to 3 µM |
| CC(=O)N1CC[C@H]2CC[C@@H](C(=O)N3CCCc4ccccc43)N2C(=O)[C@@H](NC(=O)c2cc3cc(C(F)(F)P(=O)(O)O)ccc3[nH]2)C1 [Compound 57, ((2-(((5S,8S,10aR)-3-acetyl-6-oxo-8-(1,2,3,4-tetrahydroquinoline-1-carbonyl)decahydropyrrolo[1,2-a][1,5]diazocin-5-yl)carbamoyl)-1H-indol-5-yl)difluoromethyl)phosphonic acid] | 1 to 10 µM | 0.3 to 3 µM |
| CC(=O)N1CC[C@H]2CC[C@@H](C(=O)N(C)c3ccc(C(C)(C)C)cc3)N2C(=O)[C@@H](NC(=O)c2ccc3ccc(C(F)(F)P(=O)(O)O)cc3c2)C1 [Compound 117, ((7-(((5S,8S,10aR)-3-acetyl-8-((4-(tert-butyl)phenyl)(methyl)carbamoyl)-6-oxodecahydropyrrolo[1,2-a][1,5]diazocin-5-yl)carbamoyl)naphthalen-2-yl)difluoromethyl)phosphonic acid] | > 10 µM | 0.3 to 3 µM |
| Cc1ccc2onc(C(=O)N3CC[C@H]4CC[C@@H](C(=O)N5C[C@@H](c6ccn(C)c(=O)c6)CC56CC6)N4C(=O)[C@@H](NC(=O)c4ccc5ccc([C@H](F)P(=O)(O)O)cc5c4)C3)c2c1 [Compound 387, ((R)-fluoro(7-(((5S, 8S,10aR)-8-((R)-6-(1-methyl-2-oxo-1,2-dihydropyridin-4-yl)-4-azaspiro[2.4]heptane-4-carbonyl)-3-(5-methylbenzo[d]isoxazole-3-carbonyl)-6-oxodecahydro-pyrrolo[1,2-a][1,5]diazocin-5-yl)carbamoyl)naphthalen-2-yl)methyl) phosphonic acid] | > 10 µM | ≤ 0.3 µM |
| CCN1CC[C@H]2CC[C@@H](C(=O)N3C[C@@H](C#N)[C@H](c4ccccc4)C3)N2C(=O)[C@@H](NC(=O)c2cc3cc(C(F)(F)P(=O)(O)O)ccc3s2)C1 (single isomer, unassigned) [Compound 222, ((2-(((5S,8S,10aR)-8-((3S,4R or 3R,4S)-3-cyano-4-phenylpyrrolidine-1-carbonyl)-3-ethyl-6-oxodecahydropyrrolo[1,2-a][1,5]diazocin-5-yl)carbamoyl)benzo[b]thiophen-5-yl)difluoromethyl)phosphonic acid] | 1 to 10 µM | 0.3 to 3 µM |
